Experimental findings from publication PMC9428248 (2022) are described below.

For test [1], the system named is Q2 150-206 (RNA, G4) GAGACUAAUGAACUCUUCCGGGAUGGGGUAAACUGGGGUCGCAUUGUGGCCUUUUUCUCCUUC
Nature of the test: fluorescence enhancement. The settings on record: 100 mM KCl; 10 mM Tris pH 7.0, 25 °C, 10 µM RNA, 1 µM NMM.

The subject of test [2] is XS 38-206 (RNA, mRNA element) GAGACUGAGGGAGGCAGGCGACGAGUUUGAACUGCGGUACCGGCGGGCAUUCAGUGACCUGACAUCCCAGCUCCACAUCACCCCAGGGACAGCAUAUCAGAGCUUUGAACAGGUAGUGAAUGAACUCUUCCGGGAUGGGGUAAACUGGGGUCGCAUUGUGGCCUUUUUCUCCUUC
Kind of test: fluorescence enhancement. The settings on record: 100 mM KCl; 10 mM Tris pH 7.0, 25 °C, 10 µM RNA, 1 µM NMM.

`CCc1c(C)c2cc3nc(cc4nc(cc5c(CC)c(C)c(cc1[nH]2)n5C)C(C)=C4CCC(=O)O)C(CCC(=O)O)=C3C`: the binding result in test [1] and in test [2] was “yes” in each case.
